The structures appear in SMILES notation. Several values for one entry are separate records, joined by “and”; a condition that tells them apart may be missing. Identical values can stand only once.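 The compound was tested at five concentrations on cells cultured in 96-well plates, with a 48-hour exposure period. GI50 marks 50% less growth. TGI denotes the concentration required for complete inhibition of growth.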 Where a SMILES comes first, the peptide text is derived from it. The star is where a group is joined. Boc = CC(C)(C)OC(=O)*; Bn = c1ccc(C*)cc1

The text below walks through data of PubChem BioAssay (NCI).

Some test systems named below: KM12 colon; RPMI-8226 leukemia; DLD-1 colon; DMS 273 small cell lung; KM20L2 colon; LXFL 529 NSCLC; M19-MEL melanoma; SNB-78 CNS; XF 498 CNS.
Holding throughout (experiment): inhibition of tumour cell growth, NCI panel, 48 h

Turning to `CS(=O)(=O)O[C@H]1[C@H](O)c2ccccc2[C@@H]1N=[N+]=[N-]`, the TGI in the test on KM12 colon and in the test on RPMI-8226 leukemia was > 100 µM each time.
For `C/C=C\C(CC(=O)OC)CC(=O)N(CCC1CN(S(=O)(=O)C(F)(F)F)c2ccccc21)Cc1ccc(OC)cc1OC` (stereo not given), the TGI in the test with KM12 colon and in the test with RPMI-8226 leukemia was > 100 µM throughout.
On to `O=C1/C(=C/c2ccc(O)c(O)c2)CC/C1=C\c1ccc(O)c(O)c1`, for which the TGI in the test with KM12 colon was > 100 µM; in the test with RPMI-8226 leukemia it was 76.3 µM.
For the molecule `CC(C)(C)[Si](C)(C)OCC1OC(n2ccc(=O)[nH]c2=O)C(O[Si](C)(C)C(C)(C)C)[C@]12O[C@@H]2CO` (stereo not given in full), the TGI in the test with KM12 colon was 35 µM; with RPMI-8226 leukemia, > 100 µM.
As for `CCCCCCCCCCOCCOCCOCCOCCCCC(O)CCCCCCCC1=C[C@H](C)OC1=O` (stereo not given in full), the TGI turned out to be 23.9 µM in the test on KM12 colon and 24 µM in the test with RPMI-8226 leukemia.
Take `COC(=O)/N=[N+](\[O-])C(c1ccccc1)c1ccccc1`: the TGI in the test on KM12 colon and in the test on RPMI-8226 leukemia was > 100 µM throughout.
As to `CCOC(=O)C1(N)CC1`, the TGI in the test with KM12 colon and in the test with RPMI-8226 leukemia was > 100 µM each time.
Regarding `O=C1CC2CC(CC3(CO3)C2)C1F` (stereo not given), the TGI with KM12 colon and with RPMI-8226 leukemia was > 100 µM throughout.
With `CC(C(=O)n1ccnc1)N1c2ccccc2Sc2ccccc21` (stereo not given), the TGI with KM12 colon and in the test with RPMI-8226 leukemia was > 100 µM each time.
Regarding `C(#CC1(Nc2ccccc2)CCN(Cc2ccccc2)CC1)C1(Nc2ccccc2)CCN(Cc2ccccc2)CC1`, the TGI in the test with KM12 colon was > 56.2 µM; with RPMI-8226 leukemia it was 4.88 µM.
For the molecule `COc1cc(CNc2c3ccccc3nc3ccccc23)cc(OC)c1OC`, the TGI is 21.3 µM with KM12 colon and > 27.3 µM in the test on RPMI-8226 leukemia.
Take `C[N+]12C=CC=C1C(N1CCCC1)c1scc(-c3ccc(F)cc3)c12` (stereo not given): the TGI in the test on KM12 colon and with RPMI-8226 leukemia was > 100 µM in each case.
With `C#CCOCn1cc(C)c(=O)[nH]c1=O`, the TGI with KM12 colon and in the test with RPMI-8226 leukemia was > 100 µM each time.
Consider `CCCC(=O)OC[n+]1ccc(-c2c(COC(=O)NC(C)C)c(COC(=O)NC(C)C)c3n2CCC3)cc1`, for which the TGI in the test on KM12 colon and with RPMI-8226 leukemia was > 100 µM each time.
In the case of `CCC(C)C(NC(=O)C(CC(C)C)NC(=O)CNC(=O)C(NC(=O)C1CCCN1C(=O)C(CC(C)C)NC(=O)C(N)Cc1ccccc1)C(C)CC)C(=O)NC(CC(C)C)C(N)=O` (stereo not given) (H-FLPIGLIL-NH2; configuration not given here), the TGI with KM12 colon and in the test with RPMI-8226 leukemia was > 75 µM in each case.
For the molecule `O=C(Nc1cccc(C(=O)NCCCO)c1)/C(=C/c1ccccc1)NC(=O)c1ccccc1`, the TGI with KM12 colon and in the test on RPMI-8226 leukemia was > 100 µM each time.
With `CN(C)c1ccc(/C=C(\NC(=O)c2ccccc2)C(=O)Nc2cccc(C(=O)NCCCO)c2)cc1`, the TGI with KM12 colon and in the test with RPMI-8226 leukemia was > 100 µM throughout.
As for `CNC(=O)C(CC(C)C)NC(=O)C(C)NC(=O)C(Cc1ccc(OCc2ccccc2)cc1)NC(=O)C(COCc1ccccc1)NC(=O)OC(C)(C)C` (stereo not given) (Boc-S(Bn)Y(Bn)AL-NHMe; configuration not given here), the TGI in the test on KM12 colon was > 44.2 µM and 40.3 µM. In the test on RPMI-8226 leukemia, the GI50 was 24.8 µM and 4.27 µM; the TGI was 64.4 µM and 27 µM.
For `O=c1[nH]c2c(c(=O)[nH]1)C(c1ccc([N+](=O)[O-])cc1)c1c([nH]c(=O)[nH]c1=O)O2`, the TGI was > 100 µM in the test with KM12 colon and 75 µM in the test on RPMI-8226 leukemia.
For the molecule `CN1CC2=C(NC(=S)NC2c2ccccc2Cl)/C(=C/c2ccccc2Cl)C1` (stereo not given), in the test on KM12 colon, the TGI is > 100 µM.
Consider `COC(=O)C(c1ccc(OC)cc1)N1C(=O)[C@@H](NC(=O)c2ccccc2)[C@H]1[C@@H](C)O` (stereo not given in full), for which the TGI in the test with DLD-1 colon, in the test on DMS 273 small cell lung, in the test on KM12 colon, in the test with KM20L2 colon, in the test on LXFL 529 NSCLC and with M19-MEL melanoma was > 100 µM in each case. Further, the TGI with SNB-78 CNS and with XF 498 CNS was > 100 µM in each case.
On to `O=C(NCCCN(CCCCN(CCCNC(=O)c1cc(S(=O)(=O)O)cc(O)c1O)C(=O)c1cc(S(=O)(=O)O)cc(O)c1O)C(=O)c1cc(S(=O)(=O)O)cc(O)c1O)c1cc(S(=O)(=O)O)cc(O)c1O`, for which the TGI with KM12 colon was > 100 µM.
For `CN1CCN(Cc2nc3c(s2)CCc2sccc2-3)CC1`, the TGI in the test on KM12 colon and in the test on RPMI-8226 leukemia was > 100 µM each time.
With `Cc1cc2c(cc1Cl)SC(NNC1=NCCN1)=NS2(=O)=O`, the TGI in the test with KM12 colon and in the test on RPMI-8226 leukemia was > 10 µM in each case.
Regarding `NC(=O)Cn1c(=O)oc2cc(C(=O)CN3CCOCC3)ccc21`, the TGI with KM12 colon and in the test on RPMI-8226 leukemia was > 100 µM throughout.
For `CC(=O)n1[nH]c(=O)n(-c2ccccc2)c1=O`, the TGI in the test with KM12 colon and in the test on RPMI-8226 leukemia was > 100 µM each time.
Take `CC(=O)Nc1cc2nc3n(c2cc1C)CCC3OC(C)=O` (stereo not given): the TGI in the test on KM12 colon and in the test with RPMI-8226 leukemia was > 100 µM throughout.
For `S=C1CC(c2ccccc2)Sc2cc(Cl)ccc2N1` (stereo not given), the TGI in the test on KM12 colon and in the test on RPMI-8226 leukemia was > 100 µM throughout.
As to `CC1=CC(=O)N(n2c(-c3ccccc3)n[nH]c2=O)C1=O`, the TGI in the test on KM12 colon and with RPMI-8226 leukemia was > 100 µM throughout.
Take `Nc1cc(Cl)ccc1SSc1ccc(Cl)cc1N`: the TGI in the test on KM12 colon was 24.6 µM; with RPMI-8226 leukemia it was > 100 µM.
As to `NC(=O)CCC(NC(=O)c1c2ccccc2nc2ccccc12)C(=O)O` (stereo not given), the TGI with KM12 colon and in the test on RPMI-8226 leukemia was > 100 µM throughout.
Turning to `CC(C)Cn1cnc2c(Cl)nc3ccccc3c21`, the TGI with KM12 colon and in the test with RPMI-8226 leukemia was > 100 µM in each case.
Take `Cc1cccc(C)c1N=Nc1ccc(O)c(CN(C)C)c1`: the TGI in the test with KM12 colon and with RPMI-8226 leukemia was > 100 µM each time.
Consider `O=[N+]([O-])/C(Cl)=C/C(=C1/Nc2ccccc2O1)[N+](=O)[O-]`, for which the TGI with KM12 colon turned out to be 36.2 µM; in the test on RPMI-8226 leukemia, 66.1 µM.
As to `OCC1CCCC1O` (stereo not given), the TGI in the test with KM12 colon and in the test with RPMI-8226 leukemia was > 100 µM each time.
